Legend:
TLR6 = biological target: T1, TLR6 (Homo sapiens, UniProt Q9Y2C9); assay: IFN-α1-luciferase reporter assay in genetically modified Namalwa cells, TLR6; format: cell-based; details: 10 μM IRM, 18 hours
T1 construct: expressed in transfected cells; host or cells: Namalwa (ATCC CRL-1432), pCI-TLR6 vector, G418 selected
T1 sequence (Q9Y2C9 32-796): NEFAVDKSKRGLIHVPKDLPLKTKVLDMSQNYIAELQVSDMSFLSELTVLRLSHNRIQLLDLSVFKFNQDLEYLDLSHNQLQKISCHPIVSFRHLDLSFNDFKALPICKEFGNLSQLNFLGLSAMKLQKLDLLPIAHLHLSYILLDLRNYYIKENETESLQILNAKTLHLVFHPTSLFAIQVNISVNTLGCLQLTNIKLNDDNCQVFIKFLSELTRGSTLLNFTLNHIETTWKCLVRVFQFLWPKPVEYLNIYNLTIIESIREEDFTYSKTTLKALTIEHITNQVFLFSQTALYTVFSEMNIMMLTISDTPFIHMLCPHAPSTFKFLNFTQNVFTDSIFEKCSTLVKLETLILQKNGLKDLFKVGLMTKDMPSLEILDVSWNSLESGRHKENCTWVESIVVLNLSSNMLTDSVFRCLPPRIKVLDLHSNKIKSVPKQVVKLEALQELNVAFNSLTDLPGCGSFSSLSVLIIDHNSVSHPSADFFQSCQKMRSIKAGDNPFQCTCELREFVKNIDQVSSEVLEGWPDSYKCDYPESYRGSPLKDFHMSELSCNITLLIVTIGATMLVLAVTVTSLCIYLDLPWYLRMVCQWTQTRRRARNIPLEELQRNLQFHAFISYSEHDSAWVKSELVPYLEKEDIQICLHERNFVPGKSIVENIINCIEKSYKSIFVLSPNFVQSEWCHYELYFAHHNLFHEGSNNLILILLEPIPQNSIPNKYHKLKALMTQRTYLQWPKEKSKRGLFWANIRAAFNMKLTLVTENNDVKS
Description: (§1) Results are shown in Table 6 and are expressed as fold induction of IFN-α1 —induced luciferase signal, again with respect to a vehicle control.
(§2) The assay identified TLR6-selective compounds (i.e., compounds that modulate TLR6-mediated activity, but not TLR7-mediated activity), TLR7-selective compounds (compounds that modulate TLR7-mediated activity, but not TLR6-mediated activity), and compounds that modulate cellular activity through both TLR6 and TLR7.
(§3) Unless otherwise indicated, all incubations were performed at 37° C. with 5% CO2 at 98% humidity.
(§4) Culture medium was prepared from complete RPMI 1640 medium (BioSource International, Inc., Camarillo, Calif.). Fetal bovine serum (Atlas Biologicals, Inc., Ft. Collins, Colo.) was added to a final concentration of 7.5% (vol/vol); L-glutamine (BioSource International, Inc.) was added to 5 mM; and sodium pyruvate (BioSource International, Inc.) was added to 1 mM.
Namalwa cells were grown by incubation in culture medium overnight. Cells were harvested by centrifugation in a tabletop centrifuge (1200 RPM for 5 minutes), and then resuspended in phosphate buffered sucrose to a concentration of 1.3×10^7 cells/mL.
For each transfection, a 750 μL aliquot of the cell suspension was placed in an electroporation cuvette with 4 mm gaps. 10 μg of the pIFN-α1-luc vector and 10 μg of the pCI-TLR6 vector were added to the electroporation cuvette. The cell and vector mixtures were incubated at room temperature for 5 minutes. The cells were electroporated using a BioRad Gene Pulser (BioRad Laboratories, Hercules, Calif.) set to at 500 μF capacitance and […], then incubated at room temperature for 5 minutes.
(§5) The electroporated cells were suspended in 10 mLs of culture medium and incubated overnight. Dead cells and debris were removed after 24 hours using a MACS Dead Cell Removal kit (Miltenyi Biotec, Auburn, Calif.). Cells were resuspended in 10 mL of culture medium and incubated for an additional 24 hours.
(§6) Transfected cells were selected by adding G418 (Promega Corp., Madison, Wis.) to a final concentration of 1 mg/mL and incubating the cells for seven days.
(§7) The selected transfected cells were counted and resuspended to a concentration of 1×10^6 cell per mL in culture medium. 100 μl aliquots of cells were placed in the wells of a white-walled, white-bottomed 96-well plate (Corning, Inc., Corning, N.Y.). 1.0 μL of an IRM compound from Table 1 (prepared at 1 mM in 100% DMSO) was added to some cell aliquots so that the final concentration of IRM compound was 10 μM. As a positive control, some cell aliquots were incubated with Sendai virus instead of IRM compound. As a negative control, some cell aliquots were incubated with DMSO without IRM compound. In all cases, the cells were incubated for 18 hours.
(§8) The plates were equilibrated to room temperature before one volume of reconstituted LucLight Plus (Packard Instruments, Meriden, Conn.) was added to each aliquot of cells. Each well of the plate was read on an LJL Analyst (LJL Biosystems, Inc., Sunnyvale, Calif.) set with a 5 minute dark adapt. Results are shown in Table 6 and are expressed as fold increase of the IFN-αl—induced luciferase signal compared to a DMSO control.

TLR7 = biological target: T2, TLR7 (Homo sapiens, UniProt Q9NYK1); assay: IFN-α1-luciferase reporter assay in genetically modified Namalwa cells, TLR7; format: cell-based; set-up: expressed in transfected cells; host or cells: Namalwa (ATCC CRL-1432); details: 10 μM IRM, 18 hours
T2 sequence (Q9NYK1 27-1049): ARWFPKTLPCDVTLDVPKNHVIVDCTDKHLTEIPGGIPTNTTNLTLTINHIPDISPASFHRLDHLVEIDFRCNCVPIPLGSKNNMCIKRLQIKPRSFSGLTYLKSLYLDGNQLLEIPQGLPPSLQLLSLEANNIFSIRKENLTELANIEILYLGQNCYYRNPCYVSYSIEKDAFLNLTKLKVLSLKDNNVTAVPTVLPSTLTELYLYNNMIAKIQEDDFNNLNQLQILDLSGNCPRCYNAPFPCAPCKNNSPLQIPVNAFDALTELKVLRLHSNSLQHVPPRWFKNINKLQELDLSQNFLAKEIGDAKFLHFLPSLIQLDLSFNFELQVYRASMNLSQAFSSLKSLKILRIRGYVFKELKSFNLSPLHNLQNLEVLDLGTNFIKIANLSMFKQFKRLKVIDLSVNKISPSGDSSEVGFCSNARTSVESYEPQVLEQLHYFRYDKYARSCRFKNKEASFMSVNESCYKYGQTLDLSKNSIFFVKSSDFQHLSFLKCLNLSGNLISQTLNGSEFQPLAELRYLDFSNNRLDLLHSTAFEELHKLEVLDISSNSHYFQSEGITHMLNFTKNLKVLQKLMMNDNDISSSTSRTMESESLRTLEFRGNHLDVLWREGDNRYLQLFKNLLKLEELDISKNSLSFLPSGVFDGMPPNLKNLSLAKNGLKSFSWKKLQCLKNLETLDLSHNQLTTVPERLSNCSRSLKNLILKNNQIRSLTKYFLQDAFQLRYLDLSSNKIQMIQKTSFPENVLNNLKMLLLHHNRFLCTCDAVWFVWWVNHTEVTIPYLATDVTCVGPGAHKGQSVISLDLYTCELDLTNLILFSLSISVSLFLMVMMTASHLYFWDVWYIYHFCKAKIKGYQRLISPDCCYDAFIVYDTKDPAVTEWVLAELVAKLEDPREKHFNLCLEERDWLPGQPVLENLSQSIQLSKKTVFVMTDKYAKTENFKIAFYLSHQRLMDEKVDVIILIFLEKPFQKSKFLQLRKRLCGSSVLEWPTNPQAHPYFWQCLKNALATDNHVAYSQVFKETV
Description: as §1, §2, §3, §4
Namalwa cells were grown by incubation in culture medium overnight. Cells were harvested by centrifugation in a tabletop centrifuge (1200 RPM for 5 minutes), and then resuspended in phosphate buffered sucrose to a concentration of 1.3×10^7 cells/mL. […]
as §5, §6, §7, §8

Compound | TLR6: fold increase of the IFN-α1-induced luciferase signal compared to a DMSO control (TLR6) [fold increase] | TLR7: fold increase of the IFN-α1-induced luciferase signal compared to a DMSO control (TLR7) [fold increase]
CCCCc1nc2c(N)nc3cccnc3c2n1CCNC(=O)c1ccc(Br)o1 [IRM23, N^2-[2-(4-amino-2-butyl-1H-imidazo[4,5-c][1,5]naphthyridin-1-yl)ethyl]-5-bromo-2-furamide] | 0.90 | 2.02
Nc1nc2ccccc2c2c1ncn2CCCCNC(=O)c1cccc2ccccc12 [IRM24, N^1-[4-(4-amino-1H-imidazo[4,5-c]quinolin-1-yl)butyl]-1-naphthamide] | 0.00 | 3.38
CN(C)c1cccc(CCCOCCn2cnc3c(N)nc4ccccc4c32)c1 [IRM25, 1-(2-{3-[3-(dimethylamino)phenyl]propoxy}ethyl)-1H-imidazo[4,5-c]quinolin-4-amine] | 0.04 | 2.89
CCOCc1nc2c(N)nc(C)c(C)c2n1CCNS(C)(=O)=O [IRM26, N-{2-[4-amino-2-(ethoxymethyl)-6,7-dimethyl-1H-imidazo[4,5-c]pyridin-1-yl]ethyl}methanesulfonamide] | 1.50 | 2.48
CCCCc1nc2c(N)nc3ccccc3c2s1 [IRM27, 2-butylthiazolo[4,5-c]quinolin-4-amine] | 6.28 | 1.32
Nc1nc2ccccc2c2c1ncn2CCCCNC(=O)c1cnc2ccccc2c1 [IRM28, N^3-[4-(4-amino-1H-imidazo[4,5-c]quinolin-1-yl)butyl]-3-quinolinecarboxamide] | 2.27 | 0.96
Nc1nc2ccccc2c2c1ncn2COCCOc1ccc([N+](=O)[O-])cc1 [IRM29, 1-{[2-(4-nitrophenoxy)ethoxy]methyl}-1H-imidazo[4,5-c]quinolin-4-amine] | 4.57 | 1.32
CCCCc1nc2c(N)nc3ccccc3c2n1CCCCNS(=O)(=O)c1ccc2ccccc2c1 [IRM30, N^2-[4-(4-amino-2-butyl-1H-imidazo[4,5-c]quinolin-1-yl)butyl]-2-naphthalenesulfonamide] | 4.38 | 1.28
Nc1nc2ccccc2c2c1ncn2CCOCc1cc2ccccc2o1 [IRM31, 1-[2-(benzo[b]furan-2-ylmethoxy)ethyl]-1H-imidazo[4,5-c]quinolin-4-amine] | 3.40 | 1.63
CCCCc1nc2c(N)nc3ccccc3c2n1CCCNC(=O)Nc1ccccc1 [IRM32, N-[3-(4-amino-2-butyl-1H-imidazo[4,5-c]quinolin-1-yl)propyl]-N′-phenylurea] | 7.47 | 1.77
Cc1nc(N)c2nc(C)n(CCCCCS(=O)(=O)c3ccccc3)c2c1C [IRM33, 1-(5-benzenesulfonyl-pentyl)-2,6,7-trimethyl-1H-imidazo[4,5-c]pyridin-4-ylamine] | 13.12 | 1.99
Cc1nc2c(N)nc3ccccc3c2n1CC(C)(C)O [IRM34, 4-amino-α,α,2-trimethyl-1H-imidazo[4,5-c]quinoline-1-ethanol] | 10.80 | 3.37
Nc1nc2ccccc2c2c1ncn2CCOCCCc1cccnc1 [IRM35, 1-{2-[3-(3-pyridyl)propoxy]ethyl}-1H-imidazo[4,5-c]quinolin-4-amine] | 6.72 | 2.33
CCCCc1nc2c(N)nc3cccnc3c2n1CCNC(=O)c1ccc(Br)s1 [IRM42, N^2-[2-(4-amino-2-butyl-1H-imidazo[4,5-c][1,5]naphthyridin-1-yl)ethyl]-5-bromo-2-thiophenecarboxamide] | 0.98 | 3.54
Nc1nc2ccccc2c2c1ncn2CCCCCCCCNC(=O)c1ccccc1 [IRM43, N-[8-(4-amino-1H-imidazo[4,5-c]quinolin-1-yl)octyl]benzamide] | 1.07 | 2.17

Reference: patent US20040171086A1, “Selective modulation of TLR-mediated biological activity” (3M Innovative Properties Company, priority 2003, published 2004)
